In this experiment the target is HCoV-229E 3CL protease (Human coronavirus 229E, UniProt P0C6U2). Description: FRET based protease assay, HCoV-229E 3CL. In kind it is biochemical. To be noted: 229E IC50, 6 nM H229E-CoV Chis-3CLpro, 6 μM peptide 1 substrate, 25° C., 1.5 hrs, pH 7.5.
Chain of HCoV-229E 3CL protease (P0C6U2 2966-3267): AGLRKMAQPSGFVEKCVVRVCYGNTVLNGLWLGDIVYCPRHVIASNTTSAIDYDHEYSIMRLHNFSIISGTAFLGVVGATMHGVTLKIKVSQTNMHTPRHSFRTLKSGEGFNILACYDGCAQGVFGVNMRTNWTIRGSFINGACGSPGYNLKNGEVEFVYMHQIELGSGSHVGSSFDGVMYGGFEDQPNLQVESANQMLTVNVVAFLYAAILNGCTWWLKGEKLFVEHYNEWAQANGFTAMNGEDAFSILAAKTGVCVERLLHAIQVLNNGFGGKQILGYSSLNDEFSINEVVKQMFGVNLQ
`CC(C)C[C@@H]1NC(=O)CCCC[C@@H]2CNC(=O)[C@@H]2C[C@@H](C=O)NC1=O` [Example 1]: the IC50 was 1 to 20 µM.
To `CC(C)C[C@@H]1NC(=O)CCCC[C@H]2CNC(=O)[C@H]2C[C@@H](C=O)NC1=O` [Example 2] belongs 1 to 20 µM; to `CC(C)C[C@@H]1NC(=O)CCCC[C@H]2CNC(=O)[C@@H]2C[C@@H](C=O)NC1=O` [Example 4], less than 0.1 µM; to `CC(C)C[C@@H]1NC(=O)[C@@H](Cc2ccccc2)CCC[C@@H]2CNC(=O)[C@@H]2C[C@@H](C=O)NC1=O` [Example 9], 0.1 to 1 µM.
For the molecule `CC(C)C[C@@H]1NC(=O)[C@@H](Cc2ccccc2)CCC[C@H]2CNC(=O)[C@@H]2C[C@@H](C=O)NC1=O` [Example 10], the IC50 is 1 to 20 µM.
With `CC(C)C[C@@H]1NC(=O)[C@H](Cc2ccccc2)CCC[C@@H]2CNC(=O)[C@@H]2C[C@@H](C=O)NC1=O` [Example 11], the IC50 is 0.1 to 1 µM.
The same measure for `CC(C)C[C@@H]1NC(=O)[C@H](Cc2ccccc2)CCC[C@H]2CNC(=O)[C@H]2C[C@@H](C=O)NC1=O` [Example 12]: less than 0.1 µM; for `CC(C)C[C@@H]1NC(=O)[C@@H](C2CCCC2)CCC[C@H]2CNC(=O)[C@H]2C[C@@H](C=O)NC1=O` [Example 13]: 0.1 to 1 µM.
On to `CC(C)C[C@@H]1NC(=O)[C@@H](C2CCCC2)CCC[C@@H]2CNC(=O)[C@@H]2C[C@@H](C=O)NC1=O` [Example 14], for which the IC50 lay within 0.1 to 1 µM.
Molecule `CC(C)C[C@@H]1NC(=O)[C@@H](NC(=O)OC(C)(C)C)CCC[C@H]2CNC(=O)[C@H]2C[C@@H](C=O)NC1=O` [Example 15] yielded a 50% inhibitory concentration (IC50) of 0.1 to 1 µM.
As to `CC(C)C[C@@H]1NC(=O)[C@@H](NC(=O)OC(C)(C)C)CCC[C@@H]2CNC(=O)[C@@H]2C[C@@H](C=O)NC1=O` [Example 16], the IC50 was 1 to 20 µM.
The molecule `CC(C)C[C@@H]1NC(=O)[C@@H](Cc2ccccc2)CCC[C@H]2CNC(=O)[C@@H]2C[C@@H](C=O)NC1=O` [Example 17] had an IC50 of 0.1 to 1 µM.
The same measure for `CC(C)C[C@@H]1NC(=O)[C@@H](CC2CCCC2)CCC[C@H]2CNC(=O)[C@@H]2C[C@@H](C=O)NC1=O` [Example 18]: 0.1 to 1 µM.
The same measure for `CC(C)C[C@@H]1NC(=O)[C@@H](NC(=O)OC(C)(C)C)CCC[C@H]2CNC(=O)[C@@H]2C[C@@H](C=O)NC1=O` [Example 19]: less than 0.1 µM; for `CC(C)C[C@@H]1NC(=O)[C@@H](OC(C)(C)C)CCC[C@H]2CNC(=O)[C@@H]2C[C@@H](C=O)NC1=O` [Example 20]: 1 to 20 µM; for `CC(C)C[C@@H]1NC(=O)[C@H](Cc2ccccc2)CCC[C@H]2CNC(=O)[C@@H]2C[C@@H](C=O)NC1=O` [Example 21]: less than 0.1 µM.
The same measure for `CC(C)C[C@@H]1NC(=O)[C@@H](N(C)C(=O)OC(C)(C)C)CCC[C@H]2CNC(=O)[C@@H]2C[C@@H](C#N)NC1=O` [Example 22]: 1 to 20 µM.
Turning to `CC(C)C[C@@H]1NC(=O)C(OC2CCCCC2)CCC[C@H]2CNC(=O)[C@@H]2C[C@@H](C#N)NC1=O` (some centres unmarked) [Example 23], the IC50 is greater than 20 µM.
`CC(C)C[C@@H]1NC(=O)CCCC[C@H]2CNC(=O)[C@@H]2C[C@@H](C#N)NC1=O` [Example 24]: the IC50 fell in the range of 0.1 to 1 µM.
The same measure for `CC1(C)[C@@H]2[C@H]3C(=O)N[C@H](C#N)C[C@H]4C(=O)NC[C@@H]4CCCCC(=O)N3C[C@@H]21` [Example 25]: 0.1 to 1 µM; for `N#C[C@@H]1C[C@H]2C(=O)NC[C@@H]2CCCCC(=O)N2C[C@@H]3CCC[C@@H]3[C@H]2C(=O)N1` [Example 26]: 1 to 20 µM; for `CC(C)C[C@@H]1NC(=O)[C@@H](Cc2ccccc2)CCC[C@H]2CNC(=O)[C@@H]2C[C@@H](C#N)NC1=O` [Example 27]: 1 to 20 µM.
For `CC(C)C[C@@H]1NC(=O)[C@@H](C2CCCC2)CCC[C@H]2CNC(=O)[C@@H]2C[C@@H](C#N)NC1=O` [Example 28], the IC50 is 1 to 20 µM.
For the molecule `CC(C)C[C@@H]1NC(=O)[C@@H](OC(C)(C)C)CCC[C@H]2CNC(=O)[C@@H]2C[C@@H](C#N)NC1=O` [Example 29], the IC50 was greater than 20 µM.
The same measure for `CC(C)C[C@@H]1NC(=O)CCCCC[C@H]2CNC(=O)[C@H]2C[C@@H](C=O)NC1=O` [Example 30]: less than 0.1 µM.
With `CC(C)C[C@@H]1NC(=O)CCCCC[C@@H]2CNC(=O)[C@H]2C[C@@H](C=O)NC1=O` [Example 31], the IC50 lay within 1 to 20 µM.
`CC(C)C[C@@H]1NC(=O)CCCCC[C@H]2CNC(=O)[C@@H]2C[C@@H](C=O)NC1=O` [Example 32] yielded an IC50 of less than 0.1 µM.
Turning to `CC(C)C[C@@H]1NC(=O)CCCCC[C@@H]2CCNC(=O)[C@H]2C[C@@H](C=O)NC1=O` [Example 33], the IC50 lay within 1 to 20 µM.
To `CC(C)C[C@@H]1NC(=O)CCCCC[C@H]2CCNC(=O)[C@@H]2C[C@@H](C=O)NC1=O` [Example 34] belongs 0.1 to 1 µM; to `CC(C)C[C@@H]1NC(=O)[C@@H](Cc2ccccc2)CCCC[C@@H]2CNC(=O)[C@@H]2C[C@@H](C=O)NC1=O` [Example 35], 1 to 20 µM; to `CC(C)C[C@@H]1NC(=O)[C@@H](Cc2ccccc2)CCCC[C@H]2CNC(=O)[C@H]2C[C@@H](C=O)NC1=O` [Example 36], less than 0.1 µM.
`CC(C)C[C@@H]1NC(=O)[C@@H](Cc2ccccc2)CCCC[C@H]2CNC(=O)[C@@H]2C[C@@H](C=O)NC1=O` [Example 37]: the IC50 is less than 0.1 µM.
The same measure for `CC(C)C[C@@H]1NC(=O)CCCCC[C@H]2CNC(=O)[C@H]2C[C@@H](C#N)NC1=O` [Example 38]: 0.1 to 1 µM; for `CC(C)C[C@@H]1NC(=O)[C@@H](Cc2ccccc2)CCCC[C@H]2CNC(=O)[C@H]2C[C@@H](C#N)NC1=O` [Example 39]: 0.1 to 1 µM.
The same measure for `CC(C)C[C@@H]1NC(=O)[C@@H](Cc2cccc(C(F)(F)F)c2)CCCC[C@H]2CNC(=O)[C@H]2C[C@@H](C#N)NC1=O` [Example 40]: 1 to 20 µM.
As for `CC(C)C[C@@H]1NC(=O)[C@@H](C2CCCC2)CCCC[C@H]2CNC(=O)[C@H]2C[C@@H](C#N)NC1=O` [Example 41], the IC50 was greater than 20 µM.
Consider `CC(C)C[C@@H]1NC(=O)[C@@H](Cc2ccc(F)cc2)CCCC[C@@H]2CNC(=O)[C@@H]2C[C@@H](C#N)NC1=O` [Example 42], for which the IC50 was in the range of 0.1 to 1 µM.
To `CC(C)C[C@@H]1NC(=O)[C@@H](Cc2ccc(F)cc2)CCCC[C@H]2CNC(=O)[C@H]2C[C@@H](C#N)NC1=O` [Example 43] belongs 0.1 to 1 µM; to `CC(C)C[C@@H]1NC(=O)[C@@H](NC(=O)C(C)(C)C)CCCC[C@H]2CNC(=O)[C@H]2C[C@@H](C#N)NC1=O` [Example 44], less than 0.1 µM.
Turning to `CC(C)C[C@@H]1NC(=O)CCCCCC[C@H]2CNC(=O)[C@H]2C[C@@H](C=O)NC1=O` [Example 45], the IC50 was less than 0.1 µM.
`CC(C)C[C@@H]1NC(=O)CCCCCC[C@@H]2CNC(=O)[C@@H]2C[C@@H](C=O)NC1=O` [Example 46]: the half-maximal inhibitory concentration (IC50) lay within 0.1 to 1 µM.
The same measure for `CC(C)C[C@@H]1NC(=O)CCCCCC[C@@H]2CNC(=O)[C@H]2C[C@@H](C=O)NC1=O` [Example 47]: 0.1 to 1 µM.
Take `CC(C)C[C@@H]1NC(=O)CCCCCC[C@H]2CNC(=O)[C@@H]2C[C@@H](C=O)NC1=O` [Example 48]: the half-maximal inhibitory concentration (IC50) was less than 0.1 µM.
Take `CC(C)C[C@@H]1NC(=O)[C@@H](Cc2ccccc2)CCCCC[C@@H]2CNC(=O)[C@@H]2C[C@@H](C#N)NC1=O` [Example 49]: the IC50 was greater than 20 µM.

A word on the IC50: it is the concentration needed to halve the response being measured. A higher IC50 goes with weaker potency in that assay.

Values taken from US20260325540A1 (priority 2023, published 2026).
